Measurements: US9499550B2 (BRISTOL-MYERS SQUIBB COMPANY, priority 2012, dated 2016)

Legend:
[1] = tested on: HCV genotype 1a (H77 strain) replicon in HUH-7 cells; experiment: HCV replicon luciferase reporter assay, genotype 1a; type: cell-based; details: Hepatitis C virus, Huh-7, 72 h, HCV genotype 1a replicon luciferase, 3 days incubation, read-out: LE_1a (EC50, range)
Summary of the method: (§1)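 Replicon inhibition for both genotypes was measured as Renilla luciferase signal (EnduRen, 7.5 μM final, 2 h) after 3-day, 37° C exposure of replicon-bearing HUH-7 cells in 4% FCS DMEM, 0.5% DMSO. The 1b construct carries S1179I; the 1a H77 construct carries P1496L and S2204I. Twenty-point, 3-fold dilutions were fitted four-parametrically for EC50, and CC50 was taken from multiplexed Cell Titer-Blue.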

[2] = tested on: HCV genotype 1b (Con1) replicon in HUH-7 cells; experiment: HCV replicon luciferase reporter assay, genotype 1b; type: cell-based; details: Hepatitis C virus, Huh-7, 72 h, HCV genotype 1b replicon luciferase, 3 days incubation, read-out: LE_1b (EC50, range)
Summary of the method: as §1

Row | Compound | EC50 [1] [nM] | EC50 [2] [nM]
1 | [2H]C([2H])([2H])Oc1cnc(O[C@@H]2C[C@H]3C(=O)N[C@]4(C(=O)NS(=O)(=O)C5(C)CC5)C[C@H]4/C=C\CC[C@@H](C)C[C@@H](C)[C@H](NC(=O)NC(C)(C)C)C(=O)N3C2)c2ccccc12 [Compound 5107, (2R,6S,7R,9R,13aS,14aR,16aS,Z)-6-(3-(tert-butyl)ureido)-7,9-dimethyl-N-((1-methylcyclopropyl)sulfonyl)-5,16-dioxo-2-((4-(trideuteromethoxy)isoquinolin-1-yl)oxy)-1,2,3,5,6,7,8,9,10,11,13a,14,14a,15,16,16a-hexadecahydrocyclopropa[e]pyrrolo[1,2-a][1,4]diazacyclopentadecine-14a-carboxamide] | < 5.46 | < 5.46
2 | [2H]C([2H])([2H])Oc1cnc(O[C@@H]2C[C@H]3C(=O)N[C@]4(C(=O)NS(=O)(=O)C5(C)CC5)C[C@H]4/C=C\CC[C@H](C)C[C@@H](C)[C@H](NC(=O)OC(C)(C)C(C)(F)F)C(=O)N3C2)c2ccccc12 [Compound 5108, 3,3-difluoro-2-methylbutan-2-yl((2R,6S,7R,9S,13aS,14aR,16aS,Z)-7,9-dimethyl-14a-(((1-methylcyclopropyl)sulfonyl)carbamoyl)-5,16-dioxo-2-((4-(trideuteromethoxy)isoquinolin-1-yl)oxy)-1,2,3,5,6,7,8,9,10,11,13a,14,14a,15,16,16a-hexadecahydrocyclopropa[e]pyrrolo[1,2-a][1,4]diazacyclopentadecin-6-yl)carbamate] | < 5.46 | < 5.46
3 | [2H]C([2H])([2H])Oc1cnc(O[C@@H]2C[C@H]3C(=O)N[C@]4(C(=O)NS(=O)(=O)C5(C)CC5)C[C@H]4/C=C\CC[C@@H](C)C[C@@H](C)[C@H](NC(=O)OC(C)(C)C(C)(F)F)C(=O)N3C2)c2ccccc12 [Compound 5109, 3,3-difluoro-2-methylbutan-2-yl((2R,6S,7R,9R,13aS,14aR,16aS,Z)-7,9-dimethyl-14a-(((1-methylcyclopropyl)sulfonyl)carbamoyl)-5,16-dioxo-2-((4-(trideuteromethoxy)isoquinolin-1-yl)oxy)-1,2,3,5,6,7,8,9,10,11,13a,14,14a,15,16,16a-hexadecahydrocyclopropa[e]pyrrolo[1,2-a][1,4]diazacyclopentadecin-6-yl)carbamate] | < 5.46 | < 5.46
4 | [2H]C([2H])([2H])Oc1cnc(O[C@@H]2C[C@H]3C(=O)N[C@]4(C(=O)NS(=O)(=O)C5(C)CC5)C[C@H]4CCCC[C@@H](C)C[C@@H](C)[C@H](NC(=O)OC(C)(C)C(F)(F)F)C(=O)N3C2)c2ccccc12 [Compound 5111, 1,1,1-trifluoro-2-methylpropan-2-yl((2R,6S,7R,9R,13aR,14aR,16aS)-7,9-dimethyl-14a-(((1-methylcyclopropyl)sulfonyl)carbamoyl)-5,16-dioxo-2-((4-(trideuteromethoxy)isoquinolin-1-yl)oxy)octadecahydrocyclopropa[e]pyrrolo[1,2-a][1,4]diazacyclopentadecin-6-yl)carbamate] | < 5.46 | < 5.46
5 | COc1cnc(O[C@@H]2C[C@H]3C(=O)N[C@]4(C(=O)NS(=O)(=O)C5(CF)CC5)C[C@H]4CCCC[C@@H](C)C[C@@H](C)[C@H](NC(=O)OC(C)(C)C)C(=O)N3C2)c2ccccc12 [Compound 5115, tert-butyl ((2R,6S,7R,9R,13aR,14aR,16aS)-14a-(((1-(fluoromethyl)cyclopropyl)sulfonyl)carbamoyl)-2-((4-methoxyisoquinolin-1-yl)oxy)-7,9-dimethyl-5,16-dioxooctadecahydrocyclopropa[e]pyrrolo[1,2-a][1,4]diazacyclopentadecin-6-yl)carbamate] | < 5.46 | < 5.46
6 | COc1cnc(O[C@@H]2C[C@H]3C(=O)N[C@]4(C(=O)NS(=O)(=O)C5(CF)CC5)C[C@H]4CCCC[C@H](C)C[C@@H](C)[C@H](NC(=O)OC(C)(C)C(F)(F)F)C(=O)N3C2)c2ccccc12 [Compound 5116, 1,1,1-trifluoro-2-methylpropan-2-yl((2R,6S,7R,9S,13aR,14aR,16aS)-14a-(((1-(fluoromethyl)cyclopropyl)sulfonyl)carbamoyl)-2-((4-methoxyisoquinolin-1-yl)oxy)-7,9-dimethyl-5,16-dioxooctadecahydrocyclopropa[e]pyrrolo[1,2-a][1,4]diazacyclopentadecin-6-yl)carbamate] | > 87.4 | 4.82 to 103
7 | COc1cnc(O[C@@H]2C[C@H]3C(=O)N[C@]4(C(=O)NS(=O)(=O)C5(CF)CC5)C[C@H]4CCCC[C@@H](C)C[C@@H](C)[C@H](NC(=O)OC(C)(C)C(F)(F)F)C(=O)N3C2)c2ccccc12 [Compound 5117, 1,1,1-trifluoro-2-methylpropan-2-yl((2R,6S,7R,9R,13aR,14aR,16aS)-14a-(((1-(fluoromethyl)cyclopropyl)sulfonyl)carbamoyl)-2-((4-methoxyisoquinolin-1-yl)oxy)-7,9-dimethyl-5,16-dioxooctadecahydrocyclopropa[e]pyrrolo[1,2-a][1,4]diazacyclopentadecin-6-yl)carbamate] | < 5.46 | < 5.46
8 | COc1cnc(O[C@@H]2C[C@H]3C(=O)N[C@]4(C(=O)NS(=O)(=O)C5(CF)CC5)C[C@H]4CCCC[C@H](C)C[C@@H](C)[C@H](NC(=O)OC(C)(C)C(C)(F)F)C(=O)N3C2)c2ccccc12 [Compound 5118, 3,3-difluoro-2-methylbutan-2-yl ((2R,6S,7R,9S,13 aR,14aR,16aS)-14a-(((1-(fluoromethyl)cyclopropyl)sulfonyl)carbamoyl)-2-((4-methoxyisoquinolin-1-yl)oxy)-7,9-dimethyl-5,16-dioxooctadecahydrocyclopropa[e]pyrrolo[1,2-a][1,4]diazacyclopentadecin-6-yl)carbamate] | 4.82 to 103 | 4.82 to 103
9 | COc1cnc(O[C@@H]2C[C@H]3C(=O)N[C@]4(C(=O)NS(=O)(=O)C5(CF)CC5)C[C@H]4CCCC[C@@H](C)C[C@@H](C)[C@H](NC(=O)OC(C)(C)C(C)(F)F)C(=O)N3C2)c2ccccc12 [Compound 5119, 3,3-difluoro-2-methylbutan-2-yl ((2R,6S,7R,9R,13 aR,14aR,16aS)-14a-(((1-(fluoromethyl)cyclopropyl)sulfonyl)carbamoyl)-2-((4-methoxyisoquinolin-1-yl)oxy)-7,9-dimethyl-5,16-dioxooctadecahydrocyclopropa[e]pyrrolo[1,2-a][1,4]diazacyclopentadecin-6-yl)carbamate] | < 5.46 | < 5.46
10 | COc1cnc(O[C@@H]2C[C@H]3C(=O)N[C@]4(C(=O)NS(=O)(=O)C5(CF)CC5)C[C@H]4CCCC[C@@H](C)C[C@@H](C)[C@H](NC(=O)NC(C)(C)C)C(=O)N3C2)c2ccccc12 [Compound 5120, (2R,6S,7R,9R,13aR,14aR,16aS)-6-(3-(tert-butyl)ureido)-N-((1-(fluoromethyl)cyclopropyl)sulfonyl)-2-((4-methoxyisoquinolin-1-yl)oxy)-7,9-dimethyl-5,16-dioxooctadecahydrocyclopropa[e]pyrrolo[1,2-a][1,4]diazacyclopentadecine-14a-carboxamide] | < 5.46 | < 5.46
11 | C[C@@H]1CC/C=C\[C@@H]2C[C@@]2(C(=O)NS(=O)(=O)C2(C)CC2)NC(=O)[C@@H]2C[C@@H](Oc3nccc4c(N5CCOCC5)cccc34)CN2C(=O)[C@@H](NC(=O)OC(C)(C)C)[C@H](C)C1 [Compound 5122, tert-butyl ((2R,6S,7R,9R,13aS,14aR,16aS,Z)-7,9-dimethyl-14a-(((1-methylcyclopropyl)sulfonyl)carbamoyl)-2-((5-morpholinoisoquinolin-1-yl)oxy)-5,16-dioxo-1,2,3,5,6,7,8,9,10,11,13a,14,14a,15,16,16a-hexadecahydrocyclopropa[e]pyrrolo[1,2-a][1,4]diazacyclopentadecin-6-yl)carbamate] | < 5.46 | < 5.46
12 | CCOc1ccc2c(O[C@@H]3C[C@H]4C(=O)N[C@]5(C(=O)NS(=O)(=O)C6CC6)C[C@H]5/C=C\CC[C@H](C)C[C@@H](C)[C@H](NC(=O)OC(C)(C)C)C(=O)N4C3)nccc2c1 [Compound 5127, tert-butyl ((2R,6S,7R,9S,13aS,14aR,16aS,Z)-14a-((cyclopropylsulfonyl)carbamoyl)-2-((6-ethoxyisoquinoline-1-yl)oxy)-7,9-dimethyl-5,16-dioxo-1,2,3,5,6,7,8,9,10,11,13a,14,14a,15,16,16a-hexadecahydrocyclopropa[e]pyrrolo[1,2-a][1,4]diazacyclopentadecin-6-yl)carbamate] | < 5.46 | < 5.46
13 | CCOc1ccc2c(O[C@@H]3C[C@H]4C(=O)N[C@]5(C(=O)NS(=O)(=O)C6CC6)C[C@H]5/C=C\CC[C@@H](C)C[C@@H](C)[C@H](NC(=O)OC(C)(C)C)C(=O)N4C3)nccc2c1 [Compound 5128, tert-butyl ((2R,6S,7R,9R,13aS,14aR,16aS,Z)-14a-((cyclopropylsulfonyl)carbamoyl)-2-((6-ethoxyisoquinolin-1-yl)oxy)-7,9-dimethyl-5,16-dioxo-1,2,3,5,6,7,8,9,10,11,13a,14,14a,15,16,16a-hexadecahydrocyclopropa[e]pyrrolo[1,2-a][1,4]diazacyclopentadecin-6-yl)carbamate] | < 5.46 | < 5.46
14 | CCOc1ccc2c(O[C@@H]3C[C@H]4C(=O)N[C@]5(C(=O)NS(=O)(=O)C6(C)CC6)C[C@H]5/C=C\CC[C@H](C)C[C@@H](C)[C@H](NC(=O)OC(C)(C)C)C(=O)N4C3)nccc2c1 [Compound 5133, tert-butyl ((2R,6S,7R,9S,13aS,14aR,16aS,Z)-2-((6-ethoxyisoquinolin-1-yl)oxy)-7,9-dimethyl-14a-(((1-methylcyclopropyl)sulfonyl)carbamoyl)-5,16-dioxo-1,2,3,5,6,7,8,9,10,11,13a,14,14a,15,16,16a-hexadecahydrocyclopropa[e]pyrrolo[1,2-a][1,4]diazacyclopentadecin-6-yl)carbamate] | 4.82 to 103 | < 5.46
